Experimental data reported in patent US11530244B2, “Cyclic polypeptides for PCSK9 inhibition” (priority 2018, dated 2022).
Structures can show the parent of a compound that is named as a salt. Starred links: 1 amine or outer side, 2 acyl side, 3 side chain; linkers in the order of their positions; H or OH if unused. Positions of bridges follow the written chain, without caps; N, C: chain ends. Non-standard residues stand in square brackets, D forms with d. Residues, ends and D or L forms follow the SMILES beside them. Groups on a side chain read outwards from the residue. *: point of attachment. X50 = C[C@@H](N[*:1])C(=O)C[C@@H](Cc1c[nH]c2ccc(F)cc12)C(=O)[*:2]; Phe(3-CH2NH2) = O=C([C@H](Cc1cccc(CN[*:3])c1)N[*:1])[*:2]; Ala(imidazol-2-yl) = N[C@@H](Cc1ncc[nH]1)C(=O)O; Trp(5-F) = N[C@@H](Cc1c[nH]c2ccc(F)cc12)C(=O)O; X45 = O=C(CCC(=O)[*:1])NCc1ccc(CCN[*:2])cc1; X3 = O=C(CCSCc1cc(F)cc(CSCCN[*:1])c1)[*:2]; Pro(cis-4-F) = O=C(O)[C@@H]1C[C@H](F)CN1; X4 = O=C(CCSCc1cccc(CSCCN[*:1])c1)[*:2]; γGlu = O=C(O)[C@H](CCC(=O)[*:2])N[*:1]; mXylylene = c1cc(C[*:1])cc(C[*:2])c1; AEF = NCCOc1ccc(C[C@H](N)C(=O)O)cc1; Glutaryl = O=C(CCCC(=O)[*:2])[*:1]; Palmitoyl = CCCCCCCCCCCCCCCC(=O)*; aThr = C[C@H](O)[C@H](N)C(=O)O; αMeP = C[C@@]1(C(=O)O)CCCN1; X51 = COCCOCCOCCOCCC(=O)*; Dap = NC[C@H](N)C(=O)O; AEEA = NCCOCCOCC(=O)O; Tfa = O=C(C(F)(F)F)*; Glycolyl = O=C(CO)*; AEA = NCCOCC(=O)O; Mpa = O=C(O)CCS

Legend:
PCSK9 [1] = biological target: T1, PCSK9 (Homo sapiens (Human), UniProt Q8NBP7); assay: PCSK9 Alexa FRET Standard assay (displacement of AlexaFluor647 tagged cyclic peptide Reagent A); format: binding; conditions: PCSK9 Alexa FRET Standard assay, 0.5 nM PCSK9, 20 nM AF cyclic peptide Reagent A; read-out: IC50
T1 sequence (Q8NBP7 153-692): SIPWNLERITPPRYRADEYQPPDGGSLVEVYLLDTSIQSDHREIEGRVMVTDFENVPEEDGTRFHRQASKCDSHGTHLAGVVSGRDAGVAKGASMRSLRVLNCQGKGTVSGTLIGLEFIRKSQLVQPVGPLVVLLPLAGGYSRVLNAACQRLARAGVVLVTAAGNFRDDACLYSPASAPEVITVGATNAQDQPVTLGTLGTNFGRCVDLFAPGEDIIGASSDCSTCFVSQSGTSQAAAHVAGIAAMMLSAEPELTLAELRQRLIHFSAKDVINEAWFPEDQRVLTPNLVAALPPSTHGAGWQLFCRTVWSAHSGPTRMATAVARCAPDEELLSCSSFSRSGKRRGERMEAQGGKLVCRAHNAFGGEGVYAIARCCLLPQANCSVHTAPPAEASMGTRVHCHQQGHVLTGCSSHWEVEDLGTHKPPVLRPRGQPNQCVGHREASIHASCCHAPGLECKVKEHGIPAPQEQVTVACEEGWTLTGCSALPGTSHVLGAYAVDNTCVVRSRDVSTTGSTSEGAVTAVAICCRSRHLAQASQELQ
Summary of the method: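 TR-FRET displacement: 0.5 nM biotinylated PCSK9 with 1.25 nM Strep-Eu and 20 nM AlexaFluor-tagged cyclic peptide (final) in 50 mM HEPES pH 7.4, 0.15 M NaCl, 5 mM CaCl2, 0.01% BSA, 0.01% P20, ≥2 h at room temperature. IC50 from sigmoidal fit, converted to Ki via peptide KD; falling Eu counts flagged false positives.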

PCSK9 [2] = biological target: T1, PCSK9; assay: PCSK9 Alexa FRET Plus assay (displacement of AlexaFluor647 tagged cyclic peptide Reagent B); format: binding; conditions: 0.5 nM PCSK9, 960 nM AF cyclic peptide Reagent B
Summary of the method: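 TR-FRET displacement with final 0.5 nM biotinylated PCSK9, 1.25 nM Strep-Eu and 960 nM AlexaFluor-tagged cyclic peptide in HEPES pH 7.4, NaCl, CaCl2, BSA, P20; ≥2 h at room temperature. IC50 from sigmoidal fit, converted to Ki using peptide KD. Falling europium counts flagged false positives.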

[3] = Alexa FRET Plus, read-out: IC50

Row | SMILES | IC50 (PCSK9 [1]) [µM] | IC50 (PCSK9 [2]; [3]) [µM] | IC50 (PCSK9 [2]; IC50, Alexa FRET Plus) [µM]
1 | COCCOCCOCCOCCC(=O)NCCCC[C@@H]1NC(=O)CCSCc2cccc(c2)CSC[C@@H](C(N)=O)NC(=O)[C@]2(C)CCCN2C(=O)[C@H](Cc2ccc(O)cc2)NC(=O)[C@H](Cc2cnc[nH]2)NC(=O)[C@H](CC(=O)O)NC(=O)[C@H](Cc2c[nH]c3ccc(F)cc23)NC(=O)[C@H](Cc2c[nH]c3ccc(F)cc23)NC(=O)CNC1=O [Compound 484] ([Mpa]K(X51)G[Trp(5-F)][Trp(5-F)]DHY[αMeP]C-NH2; linker 1-10 via mXylylene) | 0.00011 to 0.1 | 0.0001 to 0.1 | –
2 | COc1ccc(C[C@@H]2NC(=O)[C@H]([C@@H](C)O)NC(=O)[C@@H]3C[C@H](F)CN3C(=O)[C@H](Cc3c[nH]c4ccc(F)cc34)NC(=O)[C@H](Cc3c[nH]c4ccc(F)cc34)NC(=O)[C@@H](C)NC(=O)[C@H](CCCCN)NC(=O)[C@@H](NC(=O)CO)CC(=O)NCCOc3ccc(cc3)C[C@@H](C(N)=O)NC(=O)[C@]3(C)CCCN3C2=O)cc1 [Compound 115] (Glycolyl-DK[dA][Trp(5-F)][Trp(5-F)][Pro(cis-4-F)]TY(Me)[αMeP][AEF]-NH2; lactam 1-10) | 0.1 to 1 | 0.5 to 5 | –
3 | COc1ccc(C[C@@H]2NC(=O)[C@H]([C@@H](C)O)NC(=O)[C@@H]3C[C@H](F)CN3C(=O)[C@H](Cc3c[nH]c4ccc(F)cc34)NC(=O)[C@H](Cc3c[nH]c4ccc(F)cc34)NC(=O)[C@@H](C)NC(=O)[C@H](CCCCN)NC(=O)[C@@H](NC(=O)C(F)(F)F)CC(=O)NCCOc3ccc(cc3)C[C@@H](C(N)=O)NC(=O)[C@]3(C)CCCN3C2=O)cc1 [Compound 124] (Tfa-DK[dA][Trp(5-F)][Trp(5-F)][Pro(cis-4-F)]TY(Me)[αMeP][AEF]-NH2; lactam 1-10) | 0.00011 to 0.1 | 0.0001 to 0.1 | –
4 | NC(=O)[C@@H]1Cc2cccc(c2)CNC(=O)CCCC(=O)NCC(=O)N[C@@H](Cc2c[nH]c3ccc(F)cc23)C(=O)N[C@@H](Cc2c[nH]c3ccc(F)cc23)C(=O)N[C@@H](CC(=O)O)C(=O)N[C@@H](Cc2ncc[nH]2)C(=O)N[C@@H](Cc2ccc(O)cc2)C(=O)N1 [Compound 458] (G[Trp(5-F)][Trp(5-F)]D[Ala(imidazol-2-yl)]Y[Phe(3-CH2NH2)]-NH2; linker N-7 via Glutaryl) | 21 to 50 | 0.5 to 5 | –
5 | CCCCCCCCCCCCCCCC(=O)N[C@@H](CCC(=O)NCCOCCOCC(=O)NCCOCCOCC(=O)NCCCC[C@@H]1NC(=O)[C@H](Cc2c[nH]c3ccc(F)cc23)NC(=O)[C@H](Cc2c[nH]c3ccc(F)cc23)CC(=O)[C@@H](C)NC(=O)[C@H](CCCCN)NC(=O)CCSCc2cccc(c2)CSC[C@@H](C(N)=O)NC(=O)[C@]2(C)CCCN2C(=O)[C@H](Cc2ccc(O)cc2)NC(=O)[C@H]([C@@H](C)O)NC1=O)C(=O)O [Compound 101] ([Mpa]K[X50][Trp(5-F)]K([AEEA-AEEA-γGlu-Palmitoyl])TY[αMeP]C-NH2; linker 1-9 via mXylylene) | 0.00011 to 0.1 | 0.1 to 0.5 | –
6 | COc1ccc(C[C@@H]2NC(=O)[C@H]([C@H](C)O)NC(=O)[C@@H]3C[C@H](F)CN3C(=O)[C@H](Cc3c[nH]c4ccc(F)cc34)NC(=O)[C@H](Cc3c[nH]c4ccc(F)cc34)NC(=O)[C@@H](C)NC(=O)[C@H](CCCCN)NC(=O)CCC(=O)NCc3ccc(cc3)CCNC(=O)[C@]3(C)CCCN3C2=O)cc1 [Compound 111] (K[dA][Trp(5-F)][Trp(5-F)][Pro(cis-4-F)][aThr]Y(Me)[αMeP]; linker N-C via X45) | 0.00011 to 0.1 | – | 0.0001 to 0.1
7 | CCCc1cccc(C[C@@H]2NC(=O)[C@@H](C)NC(=O)[C@H](C)NC(=O)CCSCc3cccc(c3)CSCCNC(=O)[C@]3(C)CCCN3C(=O)[C@H](Cc3ccc(OC)cc3)NC[C@H]([C@@H](C)OC)NC(=O)[C@@H]3[C@@H](O)CCN3C(=O)[C@H](Cc3c[nH]c4ccc(F)cc34)NC2=O)c1 [Compound 459] | 21 to 50 | 0.5 to 5 | –
8 | COc1ccc(C[C@@H]2NC(=O)[C@H](Cc3cnc[nH]3)NC(=O)[C@H](CC(=O)O)NC(=O)[C@H](Cc3c[nH]c4ccc(F)cc34)NC(=O)[C@H](Cc3c[nH]c4ccc(F)cc34)NC(=O)[C@@H](C)NC(=O)[C@H](CNC(=O)COCCN)NC(=O)CCSCc3cc(F)cc(c3)CSCCNC(=O)[C@]3(C)CCCN3C2=O)cc1 [Compound 423] (cyclo(DHY(Me)[αMeP][X3][Dap](AEA)[dA][Trp(5-F)][Trp(5-F)])) | 0.00011 to 0.1 | 0.0001 to 0.1 | –
9 | COc1ccc(C[C@@H]2NC(=O)[C@H]([C@H](C)O)NC(=O)[C@H]3CCCN3C(=O)[C@H](Cc3c[nH]c4ccc(F)cc34)NC(=O)[C@H](Cc3c[nH]c4ccc(F)cc34)NC(=O)[C@@H](C)NC(=O)[C@H](CCCCN)NC(=O)CCSCc3cccc(c3)CSCCNC(=O)[C@]3(C)CCCN3C2=O)cc1 [Compound 103] (cyclo(K[dA][Trp(5-F)][Trp(5-F)][dP][aThr]Y(Me)[αMeP][X4])) | 0.00011 to 0.1 | 0.5 to 5 | –
